Experimental data reported in patent US9737073B2, “Herbicidal weed control from combinations of fluroxypyr and ALS inhibitors” (Dow AgroSciences LLC, priority 2014, dated 2017).

Tests used:
Assay type in all cases: in vivo
[1] = system: Amaranthus palmeri S. Wats. (Palmer amaranth, AMAPA); test: Postemergence herbicidal weed control, fluroxypyr-meptyl and thifensulfuron-methyl, field trials (Table 4); details: 7DAA1, 2.2 g ai/ha
Experimental: (§1) Seeds of the desired test plant species were planted in a peat-based potting soil, Metro-Mix 360® in plastic pots with a surface area of 128 square centimeters (cm^2). Metro-Mix 360® consists of formulated Canadian sphagnum peat moss, coarse perlite, bark ash, a starter nutrient charge (with gypsum), a slow-release nitrogen and dolomitic limestone. The plants were grown for 7-19 days in a greenhouse with an approximate 14-hour (h) photoperiod which was maintained at about 29° C. during the day and 26° C. during the night. Nutrients and water were added on a regular basis and supplemental lighting was provided with overhead metal halide 1000-Watt lamps as necessary. The plants were treated with postemergence foliar applications when they reached the third to fourth true leaf stage. All treatments were applied using a randomized complete block trial design, with 4 replications per treatment.
(§2) Treatments consisted of the compounds as listed in Tables 1 to 4, each compound applied alone and in combination. Commercially formulated products of fluroxypyr-meptyl (STARANE™, 333 grams acid equivalent per liter (g ae/L) EC), diclosulam (SPIDER® 84WG), cloransulam-methyl (FIRSTRATE™ 84WG), chlorimuron-ethyl (CLASSIC® 25WG) and thifensulfuron-methyl (HARMONY® 50SG). Formulated amounts of fluroxypyr-meptyl, diclosulam, cloransulam-methyl, chlorimuron-ethyl and thifensulfuron-methyl were placed in 60 milliliter (mL) glass vials and dissolved in a volume of 30 or 60 mL of a water solution containing Agri-dex crop oil concentrate in a 1% volume per volume (v/v) ratio. Compound requirements are based upon either a 30- or a 60-mL application volume at a rate of 200 liters per hectare (L/ha). Spray solutions of the mixtures were prepared by adding the stock solutions to the appropriate amount of dilution solution to form either a 30- or a 60-mL spray solution with active ingredients in single and two-way combinations. Formulated compounds were applied to the plant material with an overhead Generation III Research Sprayer manufactured by DeVries Manufacturing in Hollandale, Minn., USA. The track sprayer was equipped with an 8003E nozzle calibrated to deliver 200 L/ha at a spray height of 18 inches (43 centimeters (cm)) above average plant canopy.
(§3) The treated plants and untreated control plants were placed in a greenhouse as described above and watered by sub-irrigation to prevent wash-off of the test compounds.
(§4) Treatments were rated at 7 to 21 days after application (DAA) as compared to the untreated control plants. Visual weed control was scored on a scale of 0 to 100 percent where 0 corresponds to no injury and 100 corresponds to complete kill.
(§5) Field trials were conducted using standard herbicide small plot research methodology. Plots varied from 3×3.3 meter (m) to 4.5×10 m (width×length) with 4 replicates per treatment. The crops used in the field trials were grown using normal cultural practices for land preparation, fertilization, seeding and maintenance to ensure good growth of the crop and the weeds.
(§6) All treatments in the field trials were applied using either pressurized air or carbon dioxide (CO2) backpack or bicycle sprayers calibrated to apply 100-187 L/ha spray volume. Flat Fan spray nozzles were used in all trials, with water as the diluent applied at 275-300 kilopascals (kPa). Weed sizes at application ranged from 10 to 40 cm tall. […]

[2] = system: Abutilon theophrasti (velvetleaf, ABUTH); test: as above
Experimental: as §1, §2, §3, §4, §5, §6

[3] = system: Polygonum convolvulus L. (wild buckwheat, POLCO); test: as above; details: 21DAA1, 13.0 g ai/ha
Experimental: as §5
(§7) All treatments in the field trials were applied using either pressurized air or carbon dioxide (CO2) backpack or bicycle sprayers calibrated to apply 100-187 L/ha spray volume. Flat Fan spray nozzles were used in all trials, with water as the diluent applied at 275-300 kilopascals (kPa). Weed sizes at application ranged from 10 to 40 cm tall. Commercially available products of fluroxypyr-meptyl (STARANE™, 180 and 333 g ae/L EC), diclosulam (SPIDER® 84WG), and thifensulfuron-methyl (HARMONY® 75WG) were mixed in water at appropriately formulated product rates to achieve the desired rates based on a unit area of application (hectare) to achieve the desired rates as shown. No adjuvants were tank-mixed with any treatments applied in the field trials. Treatments were rated at 14-26 days after application as compared to the untreated control plants. Visual weed control was scored on a scale of 0 to 100 percent where 0 corresponds to no injury and 100 corresponds to complete kill.
(§8) The treated plots and control plots were rated blind at various intervals after application. Ratings were reported on a Percent (%) Visual Control basis, where 0 corresponds to no visual effect/weed control and 100 corresponds to complete kill of the target weeds.
(§9) Colby's equation was used to determine the herbicidal effects expected from the mixtures (Colby, S. R. Calculation of the synergistic and antagonistic response of herbicide combinations. Weeds 196715, 20-22). A t-test (alpha=0.05) between Colby predictions and observed combinations was used to test for significant differences indicating synergy or antagonism. The results presented in the Tables were significant according to the described criteria.
(§10) The following equation was used to calculate the expected activity of mixtures containing two active ingredients, A and B: Expected=A+B−(A×B/100) • A=observed efficacy of active ingredient A at the same concentration as used in the mixture; • B=observed efficacy of active ingredient B at the same concentration as used in the mixture.

[4] = system: Chenopodium album (common lambsquarters, CHEAL); test: as above; details: 21DAA1, 13.0 g ai/ha
Experimental: as §5, §7, §8, §9, §10

[5] = system: Amaranthus retroflexus L. (redroot pigweed, AMARE); test: as above; details: 21DAA1, 13.0 g ai/ha
Experimental: as §5, §7, §8, §9, §10

[6] = system: Abutilon theophrasti (velvetleaf, ABUTH); test: Postemergence herbicidal weed control, fluroxypyr-meptyl and chlorimuron-ethyl, field trials (Table 3)
Experimental: as §1, §2, §3, §4, §5
as §7, with “Visual weed control was scored on a scale of 0 to 100 percent where 0 corresponds to no injury and 100 corresponds to complete kill.” left out

[7] = system: Amaranthus rudis Sauer (common waterhemp, AMATA); test: as above
Experimental: as §1, §2, §3, §4, §5
as §7, with “Visual weed control was scored on a scale of 0 to 100 percent where 0 corresponds to no injury and 100 corresponds to complete kill.” left out

[8] = system: Abutilon theophrasti (velvetleaf, ABUTH); test: Postemergence herbicidal weed control, fluroxypyr-meptyl and cloransulam-methyl, field trials (Table 2)
Experimental: as §1, §2, §3, §4, §5
as §7, with “Visual weed control was scored on a scale of 0 to 100 percent where 0 corresponds to no injury and 100 corresponds to complete kill.” left out

[9] = system: Amaranthus rudis Sauer (common waterhemp, AMATA); test: as above
Experimental: as §1, §2, §3, §4, §5
as §7, with “Visual weed control was scored on a scale of 0 to 100 percent where 0 corresponds to no injury and 100 corresponds to complete kill.” left out

[10] = system: Chenopodium album (common lambsquarters, CHEAL); test: as above
Experimental: as §1, §2, §3, §4, §5
as §7, with “Treatments were rated at 14-26 days after application as compared to the untreated control plants.” left out, “kill. […]” for “kill.”

[11] = system: Sida cordifolia L. (heartleaf sida, SIDCO); test: Postemergence herbicidal weed control, fluroxypyr-meptyl and diclosulam, greenhouse trials (Table 1); details: 14DAA1, 25.2 g ai/ha
Experimental: as §1
Treatments consisted of the compounds as listed in Tables 1 to 4, each compound applied alone and in combination. […]
Treatments were rated at 7 to 21 days after application (DAA) as compared to the untreated control plants. Visual weed control was scored on a scale of 0 to 100 percent where 0 corresponds to no injury and 100 corresponds to complete kill. […]

[12] = system: Commelina benghalensis (tropical spiderwort, COMBE); test: as above
Experimental: as §5, §7, §8, §9, §10

[13] = system: Abutilon theophrasti (velvetleaf, ABUTH); test: as above
Experimental: as §1, §2, §3, §4, §9, §10

[14] = system: Amaranthus rudis Sauer (common waterhemp, AMATA); test: as above
Experimental: as §1, §2, §3, §4, §9, §10

[15] = system: Chenopodium album (common lambsquarters, CHEAL); test: as above
Experimental: as §1, §2, §3, §4, §9, §10

COC(=O)c1sccc1S(=O)(=O)NC(=O)Nc1nc(C)nc(OC)n1 [Thifensulfuron-methyl, methyl 3-[[[[(4-methoxy-6-methyl-1,3,5-triazin-2-yl)amino]carbonyl]amino]sulfonyl]-2-thiophenecarboxylate]
Thifensulfuron-methyl Mean % weed control [1]: 22.5%
Thifensulfuron-methyl Mean % weed control ([2]; 14DAA1, 0.6 g ai/ha): 56.3%
Thifensulfuron-methyl Mean % weed control ([2]; 14DAA1, 1.1 g ai/ha): 73.8%
Thifensulfuron-methyl Mean % weed control [3]: 90.0%
Thifensulfuron-methyl Mean % weed control [4]: 90.0%
Thifensulfuron-methyl Mean % weed control [5]: 90.0%

CCOC(=O)c1ccccc1S(=O)(=O)NC(=O)Nc1nc(Cl)cc(OC)n1 [Chlorimuron-ethyl, ethyl 2-[[[[(4-chloro-6-methoxy-2-pyrimidinyl)amino]carbonyl]amino]-sulfonyl]benzoate]
Chlorimuron-ethyl Mean % weed control ([6]; 14DAA1, 1.1 g ai/ha): 56.3%
Chlorimuron-ethyl Mean % weed control ([6]; 14DAA1, 2.2 g ai/ha): 62.5%
Chlorimuron-ethyl Mean % weed control ([7]; 7DAA1, 8.8 g ai/ha): 41.3%
Chlorimuron-ethyl Mean % weed control ([7]; 14DAA1, 8.8 g ai/ha): 28.8%

CCOc1nc(F)cc2nc(S(=O)(=O)Nc3c(Cl)cccc3C(=O)OC)nn12 [Cloransulam-methyl, methyl 3-chloro-2-[[(5-ethoxy-7-fluoro[1,2,4]triazolo[1,5-c]pyrimidin-2-yl)sulfonyl]amino]benzoate]
Cloransulam-methyl Mean % weed control ([8]; 14DAA1, 1.1 g ai/ha): 38.3%
Cloransulam-methyl Mean % weed control ([8]; 14DAA1, 4.4 g ai/ha): 70.0%
Cloransulam-methyl Mean % weed control ([8]; 21DAA1, 1.1 g ai/ha): 40.0%
Cloransulam-methyl Mean % weed control ([8]; 21DAA1, 4.4 g ai/ha): 70.0%
Cloransulam-methyl Mean % weed control ([9]; 8DAA1, 4.4 g ai/ha): 58.8%
Cloransulam-methyl Mean % weed control ([9]; 14DAA1, 4.4 g ai/ha): 38.8%
Cloransulam-methyl Mean % weed control ([9]; 21DAA1, 4.4 g ai/ha): 37.5%
Cloransulam-methyl Mean % weed control ([10]; 8DAA1, 4.4 g ai/ha): 35.0%
Cloransulam-methyl Mean % weed control ([10]; 14DAA1, 1.1 g ai/ha): 16.7%
Cloransulam-methyl Mean % weed control ([10]; 14DAA1, 4.4 g ai/ha): 11.7%
Cloransulam-methyl Mean % weed control ([10]; 21DAA1, 1.1 g ai/ha): 8.3%
Cloransulam-methyl Mean % weed control ([10]; 21DAA1, 4.4 g ai/ha): 11.0%
Cloransulam-methyl Mean % weed control ([10]; 21DAA1, 8.8 g ai/ha): 10.0%

CCOc1nc(F)cc2nc(S(=O)(=O)Nc3c(Cl)cccc3Cl)nn12 [Diclosulam, N-(2,6-dichlorophenyl)-5-ethoxy-7-fluoro[1,2,4]triazolo[1,5-c]pyrimidine-2-sulfonamide]
Diclosulam Mean % weed control [11]: 23.3%
Diclosulam Mean % weed control ([12]; 14DAA1, 25.2 g ai/ha): 41.3%
Diclosulam Mean % weed control ([12]; 26DAA1, 25.2 g ai/ha): 17.5%
Diclosulam Mean % weed control ([13]; 14DAA1, 1.1 g ai/ha): 28.8%
Diclosulam Mean % weed control ([13]; 21DAA1, 1.1 g ai/ha): 30.0%
Diclosulam Mean % weed control ([14]; 8DAA1, 8.8 g ai/ha): 51.3%
Diclosulam Mean % weed control ([14]; 14DAA1, 4.4 g ai/ha): 28.8%
Diclosulam Mean % weed control ([14]; 14DAA1, 8.8 g ai/ha): 27.5%
Diclosulam Mean % weed control ([14]; 21DAA1, 4.4 g ai/ha): 25.0%
Diclosulam Mean % weed control ([14]; 21DAA1, 8.8 g ai/ha): 28.8%
Diclosulam Mean % weed control ([15]; 8DAA1, 8.8 g ai/ha): 38.3%
Diclosulam Mean % weed control ([15]; 14DAA1, 2.2 g ai/ha): 3.3%
Diclosulam Mean % weed control ([15]; 14DAA1, 8.8 g ai/ha): 21.7%
Diclosulam Mean % weed control ([15]; 21DAA1, 2.2 g ai/ha): 5.0%
Diclosulam Mean % weed control ([15]; 21DAA1, 4.4 g ai/ha): 16.7%
Diclosulam Mean % weed control ([15]; 21DAA1, 8.8 g ai/ha): 31.7%
